Test results published in patent US7019021B2, “Compounds and methods for treating urinary incontinence” (Boehringer Ingelheim Pharma GmbH & Co. KG, priority 1995, dated 2006).

System: urethra
Assay: Intraluminal pressure of the urethra in the anaesthetised rabbit
Format: in vivo
Conditions: i.v.; for Contraction of the urethra / Duration of effect (contraction of the urethra): female Japanese white rabbits, urethane anaesthesia, phenylephrine 30 μg/kg vs Example 2 10 μg/kg, phenylephrine = 100
Protocol: Female Japanese white rabbits (weighing 3.0 to 3.5 kg) are anaesthetised with urethane (1 g/kg i.p.). A polyethylene cannula is inserted in the urinary bladder by means of a small incision. The changes in the intraluminal pressure are recorded by means of balloon in the urethra which contains about 1.5 ml of water at 37° C.

[1] = rabbit, 10 μg/kg Example 2 vs 30 μg/kg phenylephrine, factor

Row | Compound | Contraction of the urethra | Duration of effect (contraction of the urethra) | duration of effect (contraction of the urethra), longer by a factor compared with phenylephrine [1] | potency with regard to the contraction of the urethra, higher by a factor compared with phenylephrine [1]
1 | Cc1c(N(C)C)ccc(Br)c1N=C1NCCN1 [Example 2, 2-(6-Bromo-3-dimethylamino-2-methylphenylimino)imidazolidine] | 273% | 430% | 4.3 | 2.73
2 | CNC[C@H](O)c1cccc(O)c1 [Phenylephrine, phenylephrine] | 100% | 100% |  | 
